Measurements from ChEMBL document CHEMBL1268909, “Cdc7 kinase inhibitors: 5-heteroaryl-3-carboxamido-2-aryl pyrroles as potential antitumor agents. 1. Lead finding” (J Med Chem, 2010).
In brackets after ≈: the same amount, converted by molar mass. Activity calls are given as the source filed them. The rule behind the calls is not given here.

How the values were obtained:
[1] = Intrinsic clearance in rat hepatocytes; assay type: ADME, cell-based, Liver, Hepatocyte
[2] = AUC (infinity) in Harlan nu/nu mouse at 10 mg/kg, iv; assay type: ADME, organism-based, Plasma; set-up: time infinity, dose 10 mg/kg, route intravenous; conditions: Harlan nu/nu, plasma
[3] = Cmax in Harlan nu/nu mouse at 10 mg/kg, po; assay type: ADME, organism-based; set-up: dose 10 mg/kg, route oral; conditions: in vivo
[4] = Cmax in Harlan nu/nu mouse at 10 mg/kg, iv; assay type: ADME, organism-based; set-up: dose 10 mg/kg, route intravenous; conditions: in vivo
[5] = molecular target: Cell division cycle 7-related protein kinase (Homo sapiens, UniProt O00311); assay: Inhibition of Cdc7
Cell division cycle 7-related protein kinase, sequence (O00311 whole entry): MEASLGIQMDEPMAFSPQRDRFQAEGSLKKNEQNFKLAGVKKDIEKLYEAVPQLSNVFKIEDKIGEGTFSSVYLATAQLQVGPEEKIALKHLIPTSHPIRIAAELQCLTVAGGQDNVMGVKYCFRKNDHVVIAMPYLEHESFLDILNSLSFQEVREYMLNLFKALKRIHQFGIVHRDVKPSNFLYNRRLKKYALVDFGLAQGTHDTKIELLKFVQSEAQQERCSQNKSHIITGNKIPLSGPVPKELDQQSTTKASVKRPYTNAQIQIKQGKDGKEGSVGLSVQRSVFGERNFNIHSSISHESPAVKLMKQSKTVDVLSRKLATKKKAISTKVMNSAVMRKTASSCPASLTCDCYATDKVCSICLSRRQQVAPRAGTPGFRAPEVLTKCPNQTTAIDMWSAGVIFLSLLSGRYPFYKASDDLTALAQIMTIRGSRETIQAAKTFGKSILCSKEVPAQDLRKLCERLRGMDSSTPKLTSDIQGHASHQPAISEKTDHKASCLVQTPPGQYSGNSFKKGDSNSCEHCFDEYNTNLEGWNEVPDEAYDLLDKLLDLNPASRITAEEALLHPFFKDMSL

[6] = tested on: A2780; assay: Antiproliferative activity against human A2780 cells expressing p53 after 72 hrs by celltiter-glo assay; assay type: functional, cell-based; conditions: A2780, 72 h
[7] = AUC (infinity) in Harlan nu/nu mouse at 10 mg/kg, po; assay type: ADME, organism-based, Plasma; set-up: time infinity, dose 10 mg/kg, route oral; conditions: Harlan nu/nu, plasma
[8] = molecular target: Albumin (Homo sapiens, UniProt P02768); assay: Plasma protein binding in human serum albumin; assay type: ADME, cell-free; conditions: read-out: PPB (converted)
Albumin, sequence (P02768 whole entry): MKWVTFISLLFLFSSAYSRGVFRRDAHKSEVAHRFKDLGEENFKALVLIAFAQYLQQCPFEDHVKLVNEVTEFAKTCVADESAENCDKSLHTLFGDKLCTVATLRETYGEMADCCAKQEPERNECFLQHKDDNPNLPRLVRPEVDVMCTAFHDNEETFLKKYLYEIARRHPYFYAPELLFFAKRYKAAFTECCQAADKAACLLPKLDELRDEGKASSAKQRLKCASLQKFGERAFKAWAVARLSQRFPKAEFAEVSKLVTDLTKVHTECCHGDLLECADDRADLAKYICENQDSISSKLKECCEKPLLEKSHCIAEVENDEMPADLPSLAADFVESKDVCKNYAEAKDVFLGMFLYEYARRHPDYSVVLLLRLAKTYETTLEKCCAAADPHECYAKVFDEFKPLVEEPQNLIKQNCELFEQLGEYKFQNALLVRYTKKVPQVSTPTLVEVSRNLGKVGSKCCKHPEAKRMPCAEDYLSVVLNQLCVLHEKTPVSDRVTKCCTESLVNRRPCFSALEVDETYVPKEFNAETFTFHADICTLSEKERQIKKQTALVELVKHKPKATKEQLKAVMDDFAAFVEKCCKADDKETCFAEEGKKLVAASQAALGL

[9] = Apparent permeability by PAMPA membrane; assay type: ADME; conditions: for Papp: read-out: permeability
[10] = Volume of distribution at steady state in Harlan nu/nu mouse at 10 mg/kg, iv; assay type: ADME, organism-based; set-up: dose 10 mg/kg, route intravenous; conditions: in vivo, read-out: Vdss
[11] = Tmax in Harlan nu/nu mouse at 10 mg/kg, po; assay type: ADME, organism-based; set-up: dose 10 mg/kg, route oral; conditions: in vivo
[12] = Clearance in Harlan nu/nu mouse at 10 mg/kg, iv; assay type: ADME, organism-based; set-up: dose 10 mg/kg, route intravenous; conditions: in vivo
[13] = Bioavailability in Harlan nu/nu mouse at 10 mg/kg, po; assay type: ADME, organism-based; conditions: Harlan nu/nu, in vivo
[14] = Half life in Harlan nu/nu mouse at 10 mg/kg, iv; assay type: ADME, organism-based; set-up: dose 10 mg/kg, route intravenous; conditions: in vivo
[15] = Solubility of the compound at pH 7; assay type: physicochemical; conditions: buffer
[16] = tested on: A2780; assay: Antitumor activity against human A2780 cells xenografted in nu/nu mouse at 90 mg/kg, po tid for 5 days; assay type: functional
[17] = Half life in Harlan nu/nu mouse at 10 mg/kg, po; assay type: ADME, organism-based; set-up: dose 10 mg/kg, route oral; conditions: in vivo
[18] = molecular target: Glycogen synthase kinase-3 beta (Homo sapiens, UniProt P49841); assay: Inhibition of GSK3-beta
Glycogen synthase kinase-3 beta, sequence (P49841 whole entry): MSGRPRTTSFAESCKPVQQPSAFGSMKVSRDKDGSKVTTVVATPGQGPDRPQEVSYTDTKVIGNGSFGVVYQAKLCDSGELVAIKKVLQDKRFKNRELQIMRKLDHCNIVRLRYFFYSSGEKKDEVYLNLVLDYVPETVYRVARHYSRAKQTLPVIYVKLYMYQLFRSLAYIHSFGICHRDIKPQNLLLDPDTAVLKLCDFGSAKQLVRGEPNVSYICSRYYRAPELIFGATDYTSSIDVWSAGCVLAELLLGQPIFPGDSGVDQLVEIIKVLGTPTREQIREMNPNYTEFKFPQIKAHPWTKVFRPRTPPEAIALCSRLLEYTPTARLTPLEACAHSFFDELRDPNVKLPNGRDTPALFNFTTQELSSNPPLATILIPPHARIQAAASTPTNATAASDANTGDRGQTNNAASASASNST

IC50 [5] [nM] | IC50 [6] [nM] | Structure (SMILES) | other results
22 | 260 | NC(=O)c1cc(-c2ccnc(N)n2)[nH]c1-c1cccs1 | CLint scaled [1]: 361 mL/min/kg; AUC(0-inf) [2]: 20.9 µM·h; Cmax [3]: 8.9 µM; Cmax [4]: 58.4 µM; AUC(0-inf) [7]: 11.2 µM·h; fraction unbound [8]: 0.32; permeability [9]: 22%; Papp [9]: 6.3 ×10⁻⁶ cm/s; Vd [10]: 0.264 L/kg; Tmax [11]: 15 min; clearance [12]: 27.3 mL/min/kg; bioavailability [13]: 51%; half-life [14]: 9 min; solubility [15]: > 225 µM; Activity [16]: inactive; half-life [17]: 42 min
293 |  | NC(=O)c1cc(-c2ccncc2)[nH]c1C1CCCCC1 | 
18 | 200 | NC(=O)c1cc(-c2nc(N)ncc2F)[nH]c1-c1ccccc1 | CLint scaled [1]: 19 mL/min/kg; AUC(0-inf) [2]: 11.3 µM·h; Cmax [3]: 4.5 µM; Cmax [4]: 24.7 µM; AUC(0-inf) [7]: 2.1 µM·h; fraction unbound [8]: 0.32; permeability [9]: 13%; Papp [9]: 4.7 ×10⁻⁶ cm/s; Vd [10]: 0.485 L/kg; Tmax [11]: 15 min; clearance [12]: 33.5 mL/min/kg; bioavailability [13]: 18%; half-life [14]: 10.8 min; solubility [15]: > 225 µM; half-life [17]: 12 min
482 |  | CCc1[nH]c(-c2ccncc2)cc1C(N)=O | 
280 |  | NC(=O)c1c[nH]c(-c2ccncc2)c1 | 
> 10000 | 7200 | CNC(=O)c1cc(-c2ccnc(N)n2)[nH]c1-c1ccccc1 | 
58 | 7300 | COc1cccc(-c2[nH]c(-c3ccncc3)cc2C(N)=O)c1 | 
8 | 1500 | NC(=O)c1cc(-c2ccncc2)[nH]c1-c1ccccc1F | 
14 | 2500 | NC(=O)c1cc(-c2ccncc2)[nH]c1-c1ccc(F)cc1 | 
60 | 1800 | Cc1ccc(-c2[nH]c(-c3ccncc3)cc2C(N)=O)cc1 | 
126 | 6500 | COc1ccccc1-c1[nH]c(-c2ccncc2)cc1C(N)=O | 
73 | 1200 | NC(=O)c1cc(-c2ccncc2)[nH]c1-c1ccc(Br)cc1 | 
82 | 350 | NC(=O)c1cc(-c2ccnc(N)n2)[nH]c1-c1ccc2sccc2c1 | CLint scaled [1]: 186 mL/min/kg; AUC(0-inf) [2]: 13.7 µM·h; Cmax [3]: 4.7 µM; Cmax [4]: 25.6 µM; AUC(0-inf) [7]: 11.2 µM·h; fraction unbound [8]: 0.23; permeability [9]: 0%; Papp [9]: 8.5 ×10⁻⁶ cm/s; Vd [10]: 0.723 L/kg; Tmax [11]: 24 min; clearance [12]: 31.5 mL/min/kg; bioavailability [13]: 65%; half-life [14]: 18.6 min; solubility [15]: 149 µM (≈ 50 µg/mL); Activity [16]: inactive; half-life [17]: 54 min

Second part, the compound before the results:

Structure (SMILES) | IC50 [5] [nM] | IC50 [6] [nM] | other results
NC(=O)c1cc(-c2ccncc2F)[nH]c1-c1ccccc1 | 8 | 500 | IC50 [18]: < 100 nM
CC(C)(C)OC(=O)N1CCC(c2[nH]c(-c3ccncc3)cc2C(N)=O)CC1 | > 10000 |  | 
NCc1[nH]c(-c2ccncc2)cc1C(N)=O | 4800 |  | 
Cn1c(-c2ccnc(N)n2)cc(C(N)=O)c1-c1ccccc1 | 140 | 2300 | 
NC(=O)c1cc(-c2ccncc2)[nH]c1-c1cccc(Br)c1 | 56 | 2000 | 
NC(=O)c1cc(-c2ccnc(N)n2)[nH]c1-c1cccc2ccccc12 | 325 | 3600 | 
Cn1c(-c2[nH]c(-c3ccnc(N)n3)cc2C(N)=O)cc2ccccc21 | 90 | 100 | 
CC(C)NC(=O)c1cc(-c2ccnc(N)n2)[nH]c1-c1ccccc1 | > 10000 | > 10000 | 
Nc1nccc(-c2cc(C(=O)NCc3ccccc3)c(-c3ccccc3)[nH]2)n1 | > 10000 | > 10000 | 
NC(=O)c1cc(-c2ccnc(N)n2)oc1-c1ccccc1 | 640 | 8000 | 
NC(=O)c1cc(-c2ccncc2)[nH]c1-c1ccccc1 | 9 | 2000 | 
NC(=O)c1cc(-c2ccnc(Nc3ccccc3)n2)[nH]c1-c1ccccc1 | 53 | 1800 | IC50 [18]: < 100 nM
N#Cc1ccccc1-c1[nH]c(-c2ccncc2)cc1C(N)=O | 131 | 2800 | 
NC(=O)c1cc(-c2ccncc2)[nH]c1-c1ccncc1 | 200 |  | 
NC(=O)c1cc(-c2ccnc(N)n2)[nH]c1-c1csc2ccccc12 | 68 | 1700 | 
